Columns and labels:
[1] = test system: C57 mice; assay: Forced swimming experiment in normal mice; assay type: in vivo; conditions: C57 male mice, intraperitoneal; for immobility time in forced swimming test: compared with vehicle group
Protocol: (§1) The forced swimming test system is primarily used in antidepressant studies.
(§2) Experimental operation: Mice were individually placed in a cylindrical glass tank 30 cm high and 20 cm in diameter, with a water depth of 15 cm (20 cm for rats), so that the mice are unable to escape from the glass tank and their feet and tails can not touch the bottom of the tank. The water temperature was 23° C.-25° C. The mice were filmed for 6 minutes after entering the water. Since most of the mice were very active in the first two minutes, the last 4 minutes of immobility time were calculated (criteria for determining immobility: the mice stopped struggling in the water, immobility and fine limb movements to maintain balance or float). Groups of mice were operated in parallel.
CLA096: Three doses were set up in this example, the low, medium and high doses were 5 mg/kg, 20 mg/kg and 40 mg/kg, respectively. The compound was dissolved in 0.5% Tween-40 and sonicated, and should be used right after it was ready.
Fluoxetine (FLX): FLX with a dose of 10 mg/kg; dissolved in double distilled water, and should be used right after it was ready.

[2] = test system: SD rats; assay: Open field test in rats (control and ACTH-induced refractory depression model); assay type: in vivo; conditions: normal animals and ACTH model animals (SD rats); 20 mg/kg intraperitoneal, tested 30 min after administration
Text: Open field test, also known as the open box test, is a method to evaluate the autonomous behavior, exploratory behavior and anxiety-like behavior of experimental animals in a novel environment. The frequency and duration of the normal activities, the fear of the open environment and the exploration of the new environment and other behaviors of the experimental animals in the open box are used to reflect the autonomous behavior and exploratory behavior of the experimental animals in the unfamiliar environment. The results of the open-field experiments were analyzed to evaluate the depression and anxiety-like behaviors of the animals.
Experimental operation: the experimental animals were placed in the behavior room 2 hours before the experiment. The animals were placed in the center of the bottom of a black plastic box (size 100*100*45 cm) during the experiment, while video filming was performed. The experiment time was 10 minutes and was conducted in a quiet environment. […] The video was analyzed using the animal spontaneous activity analysis software to obtain information of central area activity time (anxiety-like behavior), total distance of activities (exercise ability), and number of wall climbing (novel environment exploratory behavior) and the like, which can be used to judge the depression or anxiety-like behavior of the animal and degree thereof. […]

[3] = target: T1, TREK-1 ion channel (Homo sapiens, UniProt O95069); assay: Whole-cell membrane clamp recording of TREK-1 channel current in transfected CHO-K1 cells; assay type: cell-based
T1 construct: expressed in transfected cells; host or cells: CHO-K1
T1 sequence (O95069 1-426): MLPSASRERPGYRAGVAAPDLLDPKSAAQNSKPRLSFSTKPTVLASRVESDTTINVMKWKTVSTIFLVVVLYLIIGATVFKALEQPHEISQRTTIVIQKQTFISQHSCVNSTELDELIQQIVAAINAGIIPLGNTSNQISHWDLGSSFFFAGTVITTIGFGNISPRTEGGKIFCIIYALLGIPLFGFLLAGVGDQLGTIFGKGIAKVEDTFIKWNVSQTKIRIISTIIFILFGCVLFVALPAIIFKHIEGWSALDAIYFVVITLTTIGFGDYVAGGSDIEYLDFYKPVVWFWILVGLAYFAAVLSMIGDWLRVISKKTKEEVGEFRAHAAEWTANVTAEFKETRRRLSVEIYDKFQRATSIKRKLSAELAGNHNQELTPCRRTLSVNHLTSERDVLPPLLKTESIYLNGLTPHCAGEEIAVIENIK
Protocol: Cells were transfected using a cationic liposome transfection method, and the target gene TREK-1 plasmid protein was heterologously expressed in CHO-K1 cells according to the operating standard instructions of Lipo3000 transfection reagent. The ion channel protein was expressed in the cells for 24-48 h followed by electrophysiological experiments.
Whole-cell membrane clamp recording mode was used for electrophysiological experiments. The transfected cells were placed in a bath containing extracellular fluid, the resistance of the drawn electrode is 3-7 MΩ, the electrode was filled with intracellular fluid, the polished electrode was used to contact the cell membrane, the positive voltage was removed and the negative voltage was gently applied to form a high impedance seal, and then the cell membrane was broken by continuing to apply negative voltage, i.e. whole-cell recording mode was formed. The sampling frequency of the electrophysiological amplifier was 10 kHz, and the data sampling was controlled using a DigiData 1440A conversion interface. The software used for collecting and analyzing whole-cell recording experimental data is Clamfit 10.7, the software used for data analysis and graphing is Origin 8.1, and the software used for statistical analysis is SPSS.
CLA096: Three doses were set up in this example. The drug was firstly dissolved in DMSO and then diluted with tri-distilled water to […]: 5 µM, 10 µM and 20 µM, respectively.
The experiment was performed using a cell membrane clamp method to record the current of TREK-1 ion channel in whole cells. Protocol A0 was chosen to record the currents of cells at -80 mV, -60 mV, -40 mV, -20 mV, 0 mV, 20 mV, 40 mV, 60 mV and 80 mV, and Protocol A0 was repeated with different concentrations such as 5 µM, 10 µM and 20 µM of CLA096 being perfused, respectively. After administration, whether it can be eluted was tested.

[4] = test system: C57 mice; assay: Novelty-suppressed feeding experiment in normal mice; assay type: in vivo; conditions: C57 male mice, intraperitoneal
Protocol: Novelty-suppressed feeding experiment (NSF) is a conflict between feeding occurred in a novel environment in a state of starvation after fasting and fear of novel environment. Long-term administration of antidepressant drugs can reduce the conflict response ability of animals, which is manifested by shortened incubation period of the start of feeding. This model is currently widely used in the evaluation of antidepressant and anti-anxiety efficacy.
The experimental equipment was a 35 cm*35 cm*30 cm (L*W*H) open box, which was overspread with substrate, and a white filter paper with a diameter of 5 cm was placed in the open box, and 2 pieces of food were placed in the middle of the filter paper. The animals were fasted for 12 h before the administration of the drug.
Two hours before the behavioral test, the animal were moved into the functional room for 2 h to acclimatize. […] The animal were placed from the edge of the experimental open box, and the animal were regarded as successful feeding if their mouths touched the food within 10 min, and then the animal were removed immediately and the time of successful feeding (i.e. Novelty latency) was calculated. The animal were then placed in the normal feeding cage and the time from placement to feeding (i.e. Habituation latency) was also calculated. […] The whole experiment was recorded by camera, and the data were processed and analyzed offline. […]

[5] = test system: mice; assay: 14-day subacute toxicity test in mice; assay type: in vivo; conditions: male and female mice; 5, 50 and 100 mg/kg intraperitoneal, once a day, 14 days
Protocol: Test drug configuration: CLA096: Three doses were set up: 5 mg/kg, 50 mg/kg and 100 mg/kg, respectively.

[6] = test system: SD rats; assay: Forced swimming test in rats (control and ACTH-induced refractory depression model); assay type: in vivo; conditions: 20 mg/kg intraperitoneal, tested 30 min after administration; for antidepressant effect in forced swimming: ACTH group SD rats (refractory depression model)
Protocol: as §1, §2
An animal model of refractory depression was induced in SD rats by continuous intraperitoneal injection of adrenocorticotropic hormone (ACTH) for 3 weeks. This model can block the effects of tricyclic antidepressants and some SSRIs antidepressants, but can not block the efficacy of ketamine and electroconvulsive therapy (ETC). Since ketamine and ETC have specific efficacy in refractory depression, this animal model can be used to preliminary evaluate whether the drug have efficacy in refractory depression.
1. SD rats in the model group (ACTG) were continuously injected with ACTH for 3 weeks (once/day), and the test drug was injected intraperitoneally 24 h after the last administration of ACTH. The rats in the control group (CON) were continuously injected intraperitoneally with 0.9% saline (once/day) and similarly the test drug was injected intraperitoneally 24 h after the last administration of saline.
3. After the open-field experiment, ACTH was continued to be injected, and after 24 h, the above test drug was injected intraperitoneally and forced swimming was tested 30 min after the administration.

[7] = CLA096 5, 20, 40 mg/kg vs positive control fluoxetine

CN(Cc1ccccc1)C(=O)CN(c1ccc(Cl)cc1)S(C)(=O)=O [CLA096, N-benzyl-2-(N-(4-chlorophenyl)methylsulfonylamino)-N-methylacetamide]
effect on forced swimming immobility time compared with fluoxetine [1, 7]: significantly better than fluoxetine
immobility time in forced swimming test ([1]; CLA096 5, 20 and 40 mg/kg): significantly reduces the immobility time of animals at all doses
total movement distance in open field [2]: no significant difference
inhibition rate of TREK-1 channel open current ([3]; 5 µM CLA096): 0.75 ± 0.02
inhibition rate of TREK-1 channel open current ([3]; 10 µM CLA096): 0.55 ± 0.05
inhibition rate of TREK-1 channel open current ([3]; 20 µM CLA096): 0.59 ± 0.01
effect on feeding latency compared with fluoxetine [4, 7]: significantly better than fluoxetine
latency of feeding of fasted mice (novelty-suppressed feeding) ([4]; CLA096 5, 20 and 40 mg/kg, compared with vehicle group): significantly reduced the latency value
body weight change [5]: no significant changes in body weight
antidepressant effect in forced swimming [6]: remained significant
immobility time of forced swimming ([6]; control (CON) group SD rats): significantly reduced the immobility time
swimming time in forced swimming ([6]; control (CON) group SD rats): significantly increased the swimming time

CN(C)CCCN1c2ccccc2CCc2ccccc21 [Imipramine]
antidepressant effect in forced swimming [6]: blocked
immobility time of forced swimming ([6]; control (CON) group SD rats): significantly reduced the immobility time

CNC1(c2ccccc2Cl)CCCCC1=O (stereo not drawn) [Ketamine]
total movement distance in open field [2]: no significant difference
antidepressant effect in forced swimming [6]: remained significant
immobility time of forced swimming ([6]; control (CON) group SD rats): significantly reduced the immobility time

CNCCC(Oc1ccc(C(F)(F)F)cc1)c1ccccc1 (stereo not drawn) [Fluoxetine, reference compound]
immobility time in forced swimming test ([1]; fluoxetine 10 mg/kg (table says 20)): significantly reduces the immobility time
